Values after ≈ are worked out from the molar mass of the structure shown. Counter-ions that a name gives are not always drawn.
How the values were obtained:
Escherichia coli = test: test tube serial dilution test (minimal inhibitory concentration), E. coli (Gram negative); assay type: cell-based; conditions: broth serial dilution; for MIC: Escherichia coli, read-out: Minimum Inhibitory Concentration, E. coli
Source text: (§1) It has been observed that the compounds generally described by the foregoing formula are particularly effective against gram positive organisms such as Staphylococcus aureus, Streptococcus sanguis and Streptococcus mutans; gram negative organisms such as Pseudomonas aeruginosa and Escherichia coli; and against fungi, such as Candida alibicans (yeast) and Trichophyton mentogrophytes and Aspergillus niger (mold). Compounds wherein A or B is a carboxyl radical in lieu of instant alkyl ester radical are substantially devoid of antibacterial activity.
(§2) The anti-microbial nature of the instant novel nontoxic compounds was shown by a standard test tube serial dilution test in which an appropriate number of test tubes of broth containing decreasing concentrations of the test agent was innoculated with the test organism (0.1% in ethyl alcohol). After a suitable period of incubation, the tubes were examined for the presence or absence of growth. The activity of the test agent was the lowest concentration which inhibited the growth of the organism and is expressed as the minimal inhibitory concentration in μ gm/ml. As shown in the following table of antimicrobial data, the dibiguanides of this invention are active against a variety of micro-organisms with maximum activity with a butyl and pentyl ester substituent on the phenyl radical.

Pseudomonas aeruginosa = test: test tube serial dilution test (minimal inhibitory concentration), Ps. aeruginosa (Gram negative); assay type: cell-based; conditions: broth serial dilution; for MIC: Pseudomonas aeruginosa, read-out: Minimum Inhibitory Concentration, Ps. aeruginosa
Source text: as §1, §2

Staphylococcus aureus = test: test tube serial dilution test (minimal inhibitory concentration), S. aureus (Gram positive); assay type: cell-based; conditions: broth serial dilution; for MIC: Staphylococcus aureus, read-out: Minimum Inhibitory Concentration, S. aureus
Source text: as §1, §2

Streptococcus mutans = test: test tube serial dilution test (minimal inhibitory concentration), Strep. mutans (Gram positive); assay type: cell-based; conditions: broth serial dilution; for MIC: Streptococcus mutans, read-out: Minimum Inhibitory Concentration, Strep. mutans
Source text: as §1, §2

[1] = test system: Trichophyton mentogrophytes; test: test tube serial dilution test (minimal inhibitory concentration), T. ment (mold); assay type: cell-based; conditions: broth serial dilution; for MIC: Trichophyton, read-out: Minimum Inhibitory Concentration, T. ment
Source text: as §1, §2

Streptococcus sanguis = test: test tube serial dilution test (minimal inhibitory concentration), Strep. sanguis (Gram positive); assay type: cell-based; conditions: broth serial dilution; for MIC: Streptococcus, read-out: Minimum Inhibitory Concentration, Strep. sanguis
Source text: as §1, §2

C. albicans = test: test tube serial dilution test (minimal inhibitory concentration), C. albicans (yeast); assay type: cell-based; conditions: broth serial dilution; for MIC: Candida albicans, read-out: Minimum Inhibitory Concentration, C. albicans
Source text: as §1, §2

Aspergillus niger = test: test tube serial dilution test (minimal inhibitory concentration), A. niger (mold); assay type: cell-based; conditions: broth serial dilution; for MIC: Aspergillus niger, read-out: Minimum Inhibitory Concentration, A. niger
Source text: as §1, §2

[2] = literature; cited from earlier work
dental plaque = conditions: background statement; cited from earlier work
[3] = on standing; cited from earlier work

Row | Structure (SMILES) | MIC (Escherichia coli) [µg/mL] | MIC (Pseudomonas aeruginosa) [µg/mL] | MIC (Staphylococcus aureus) [µg/mL] | MIC (Streptococcus mutans) [µg/mL] | MIC [1] [µg/mL] | MIC (Streptococcus sanguis) [µg/mL] | MIC (C. albicans) [µg/mL] | MIC (Aspergillus niger) [µg/mL] | Minimum Inhibitory Concentration, E. coli (Escherichia coli) | Minimum Inhibitory Concentration, Ps. aeruginosa (Pseudomonas aeruginosa) [μgm/ml] | Minimum Inhibitory Concentration, S. aureus (Staphylococcus aureus) | Minimum Inhibitory Concentration, Strep. mutans (Streptococcus mutans) | Minimum Inhibitory Concentration, T. ment [1] [μgm/ml] | Minimum Inhibitory Concentration, Strep. sanguis (Streptococcus sanguis) | Minimum Inhibitory Concentration, C. albicans (C. albicans) [μgm/ml] | Minimum Inhibitory Concentration, A. niger (Aspergillus niger) [μgm/ml] | bacteriostatic activity in words [2] | antibacterial effect against dental plaque (dental plaque) | hydrolysis of solutions to p-chloroaniline [3]
1 | CC(C)OC(=O)c1ccc(NC(=N)NC(=N)NCCCCCCNC(=N)NC(=N)Nc2ccc(C(=O)OC(C)C)cc2)cc1 [A = (CH3)2 CHOCO, B = H] | 1.56 (≈ 2.56 µM) | 25 (≈ 41.1 µM) | 0.19 (≈ 0.312 µM) | 0.1 (≈ 0.164 µM) | 6.25 (≈ 10.3 µM) | 6.25 (≈ 10.3 µM) | 1.56 (≈ 2.56 µM) | 50 (≈ 82.1 µM) |  |  |  |  |  |  |  |  |  |  | 
2 | CCOC(=O)c1ccc(NC(=N)NC(=N)NCCCCCCNC(=N)NC(=N)Nc2ccc(C(=O)OCC)cc2)cc1 [A = C2 H5 OCO, B = H, N,N"-bis(4-ethoxycarbonylphenyl)-3,12-diimino-2,4,11,13-tetraazatetradecanediimidamide dihydrochloride] | 1.56 | 25 | 0.78 | 0.39 | 12.5 | 25 | 12.5 | 100 |  |  |  |  |  |  |  |  |  |  | 
3 | CCCOC(=O)c1ccc(NC(=N)NC(=N)NCCCCCCNC(=N)NC(=N)Nc2ccc(C(=O)OCCC)cc2)cc1 [A = C3 H7 OCO, B = H] | 1.56 (≈ 2.56 µM) | 25 (≈ 41.1 µM) | 0.19 (≈ 0.312 µM) | < 0.05 | 3.12 (≈ 5.13 µM) | 3.12 (≈ 5.13 µM) | 3.12 (≈ 5.13 µM) | 100 (≈ 164 µM) |  |  |  |  |  |  |  |  |  |  | 
4 | CCCCOC(=O)c1ccc(NC(=N)NC(=N)NCCCCCCNC(=N)NC(=N)Nc2ccc(C(=O)OCCCC)cc2)cc1 [A = C4 H9 OCO, B = H] |  |  |  |  |  |  |  |  | 1.56 μgm/ml | 12.5 | 0.1 μgm/ml | < .05 μgm/ml | 12.5 | .78 μgm/ml | 0.78 | 50 |  |  | 
5 | CCCCCOC(=O)c1ccc(NC(=N)NC(=N)NCCCCCCNC(=N)NC(=N)Nc2ccc(C(=O)OCCCCC)cc2)cc1 [A = C5 H11 OCO, B = H] | 25 (≈ 37.6 µM) | 50 (≈ 75.2 µM) | 0.39 (≈ 0.587 µM) | < 0.05 | 25 (≈ 37.6 µM) | 0.19 (≈ 0.286 µM) | 0.39 (≈ 0.587 µM) | 50 (≈ 75.2 µM) |  |  |  |  |  |  |  |  |  |  | 
6 | CCCCCCOC(=O)c1ccc(NC(=N)NC(=N)NCCCCCCNC(=N)NC(=N)Nc2ccc(C(=O)OCCCCCC)cc2)cc1 [A = C6 H13 OCO, B = H] | 6.25 (≈ 9.02 µM) | 50 (≈ 72.2 µM) | 0.39 (≈ 0.563 µM) | 0.39 (≈ 0.563 µM) | 12.5 (≈ 18 µM) | 0.39 (≈ 0.563 µM) | 0.39 (≈ 0.563 µM) | 100 (≈ 144 µM) |  |  |  |  |  |  |  |  |  |  | 
7 | CCCCCCCCOC(=O)c1ccc(NC(=N)NC(=N)NCCCCCCNC(=N)NC(=N)Nc2ccc(C(=O)OCCCCCCCC)cc2)cc1 [A = C8 H17 OCO, B = H, N,N"-bis(4-Octyloxycarbonylphenyl)-3,12-diimino-2,4,11,13-tetraazatetradecanediimidamide dihydrochloride] | 12.5 | 50 | 1.56 | 1.56 | 25 | 25 | 12.5 | 100 |  |  |  |  |  |  |  |  |  |  | 
8 | COC(=O)c1ccc(NC(=N)NC(=N)NCCCCCCNC(=N)NC(=N)Nc2ccc(C(=O)OC)cc2)cc1 [A = CH3 OCO, B = H] |  |  |  |  |  |  |  |  | 25 μgm/ml | 50 | 6.25 μgm/ml | 1.56 μgm/ml | 12.5 | 50 μgm/ml | 25 | 100 |  |  | 
9 | N=C(NCCCCCCNC(=N)NC(=N)Nc1ccc(C(=O)O)cc1)NC(=N)Nc1ccc(C(=O)O)cc1 [A = COOH, B = H, reference compound] | 100 (≈ 191 µM) | 50 (≈ 95.3 µM) | 10 (≈ 19.1 µM) | 25 (≈ 47.7 µM) | 100 (≈ 191 µM) | 100 (≈ 191 µM) | 100 (≈ 191 µM) | 100 (≈ 191 µM) |  |  |  |  |  |  |  |  |  |  | 
10 | CC(C)OC(=O)c1cccc(NC(=N)NC(=N)NCCCCCCNC(=N)NC(=N)Nc2cccc(C(=O)OC(C)C)c2)c1 [A = H, B = (CH3)2 CHOCO, dihydrochloride] | 3.12 | 50 | 0.19 | 0.1 | 12.5 | 12.5 | 3.12 | 50 |  |  |  |  |  |  |  |  |  |  | 
11 | CCCCOC(=O)c1cccc(NC(=N)NC(=N)NCCCCCCNC(=N)NC(=N)Nc2cccc(C(=O)OCCCC)c2)c1 [A = H, B = C4 H9 OCO] | 0.78 (≈ 1.22 µM) | 12.5 (≈ 19.6 µM) | < 0.05 | < 0.05 | 6.25 (≈ 9.81 µM) | 1.56 (≈ 2.45 µM) | 0.39 (≈ 0.612 µM) | 50 (≈ 78.5 µM) |  |  |  |  |  |  |  |  |  |  | 
12 | COC(=O)c1cccc(NC(=N)NC(=N)NCCCCCCNC(=N)NC(=N)Nc2cccc(C(=O)OC)c2)c1 [A = H, B = CH3 OCO] | 12.5 (≈ 22.6 µM) | 50 (≈ 90.5 µM) | 3.12 (≈ 5.65 µM) | 1.56 (≈ 2.82 µM) | 12.5 (≈ 22.6 µM) | 100 (≈ 181 µM) | 25 (≈ 45.2 µM) | 100 (≈ 181 µM) |  |  |  |  |  |  |  |  |  |  | 
13 | N=C(NCCCCCCNC(=N)NC(=N)Nc1ccc(Cl)cc1)NC(=N)Nc1ccc(Cl)cc1 [Chlorhexidine hydrochloride, reference compound] |  |  |  |  |  |  |  |  | .78 μgm/ml | 12.5 | .19 μgm/ml | < .05 μgm/ml | 1.56 | 6.25 μgm/ml | 3.12 | 25 |  |  | 
14 | N=C(NCCCCCCNC(=N)NC(=N)Nc1ccc(Cl)cc1)NC(=N)Nc1ccc(Cl)cc1 [Chlorhexidine, reference compound] |  |  | 0.19 (≈ 0.376 µM) | < 0.05 |  |  | 1.56 (≈ 3.09 µM) | 25 (≈ 49.5 µM) | 0.19 μgm/ml |  |  |  |  | 3.12 μgm/ml |  |  | selected as the best | effective antibacterial agent against dental plaque | hydrolyze on standing to form additional amounts of p-chloroaniline
15 | CCCCOC(=O)c1ccc(NC(=N)NC(=N)NCCCCCCNC(=N)NC(=N)Nc2ccc(C(=O)OCCCC)cc2)cc1 [drawing 6: A = C4 H9 OCO, B = H] | 3.12 (≈ 4.9 µM) | 25 (≈ 39.3 µM) | 0.05 (≈ 0.0785 µM) | < 0.05 |  | 0.78 (≈ 1.22 µM) | 0.78 (≈ 1.22 µM) | 100 (≈ 157 µM) |  |  |  |  | 0.19 |  |  |  |  |  | 
16 | COC(=O)c1ccc(NC(=N)NC(=N)NCCCCCCNC(=N)NC(=N)Nc2ccc(C(=O)OC)cc2)cc1 [drawing 6: A = CH3 OCO, B = H] | 50 (≈ 90.5 µM) | 25 (≈ 45.2 µM) |  |  | 25 (≈ 45.2 µM) | 50 (≈ 90.5 µM) | 25 (≈ 45.2 µM) | 100 (≈ 181 µM) |  |  | 3.12 μgm/ml | 25 μgm/ml |  |  |  |  |  |  | 

Reference: patent publication US4059687A, “Ester substituted dibiguanides and non-toxic antimicrobial compositions thereof” (Colgate Palmolive Company, priority 1976, dated 1977)
